Patent publication US20260294863A1, “METHOD OF TREATING FIBROTIC-RELATED CONDITION” (YISSUM RESEARCH DEVELOPMENT COMPANY OF THE HEBREW …, priority 2023, published 2026)
Entries after “also recorded” stand apart in the source; their conditions may differ.

Key:
TNFα [1] = assay: Secretion of TNFα from BzATP/LPS-activated microglia (ELISA); format: cell-based, Balb/C mice; conditions: all concentrations tested, added 2 hrs before BzATP and LPS, 0.1% BSA; p<0.01
Description: (§1) Experiments were performed on primary microglial cells isolated from brains of neonatal Balb/C mice as previously described (Reichert and Rotshenker, 2003). The brains were stripped of their meninges and enzymatically dissociated. Cells were plated on Poly-L-lysine coated flasks for one week, re-plated for 1- to 2-hr on bacteriological plates and non-adherent cells were washed away. Microglia were propagated by incubation in 20% of medium, conditioned by the L-cell line that produces mouse-CSF. They were identified by morphology and positive immune-reactivity to P2y12, F4/80, complement receptor-3 and Galectin-3/MAC-2 (Reichert and Rotshenker 2003; Gitik et al. 2011).
(§2) Cytokines were measured as previously described (Shamash et al. 2002) using ELISA Max deluxe set (Biolegend, CA, USA) for secreted TNFα and IL-6 proteins and ELISA DuoSet (R&D systems, UK) for secreted and cell associated IL-1β, according to manufacturer's instructions.
(§3) The effect of ladostigil at concentrations of 1×10^−13 M to 1×10^−9 M on the secretion of cytokine proteins was assessed by adding it to microglia for 2 hr before LPS (0.75 μg/ml) and BzATP (400 μM). Other microglia were treated similarly with the steroid, budesonide as a reference standard at concentrations of 1× 10^−13 to 1× 10^−11 M. Measurements of cytokine secretion were performed 8 hrs after addition of LPS and BzATP. Since the levels of secreted IL-1β were still low, samples were concentrated 2- to 4-fold by an Amicon ultra-centrifugal filter device (Merck-Millipore, Ireland). ELISA was used to quantify the levels of cytokine proteins. Protein content in the microglia lysate was measured by Bradford and levels of cytokines were calculated and presented as pg/μg of microglial protein.

IL6 = assay: Secretion of IL6 from BzATP/LPS-activated microglia (ELISA); format: cell-based, Balb/C mice; conditions: all concentrations tested
Description: as §1, §2, §3

IL1β = assay: Secretion of IL1β from BzATP/LPS-activated microglia (ELISA); format: cell-based, Balb/C mice
Description: as §1, §2, §3

[2] = Body weight in bleomycin-induced skin sclerosis; format: in vivo, C57BL/6 mice; conditions: bleomycin, days 24-27
Description: (§4) Male C57BL/6 mice aged 8 weeks were housed under pathogen-free conditions at a controlled temperature of 22-24° C., humidity and alternating 12-h light/dark cycles and provided with food and water ad libitum. Skin sclerosis was induced as described by Ravanetti et al, (2020). A small incision was made in the skin at the back caudal to the scapulae and subcutaneous pocket was created into which an Alzet micro-osmotic pump was implanted, and the incision closed with two stiches and a surgical clip. The pumps contained bleomycin, (delivered at the rate of 60 U/kg body weight) or saline (control) and were removed 10 days after implantation. The mice were monitored daily until they recovered completely and weighed twice weekly from the beginning of the experiment.
(§5) Ladostigil (10 mg/kg/day) was administered in the drinking fluid to 10 mice, housed 2/cage, from 3 days before bleomycin pump installation until the end of the experiment. The fluid intake of the mice was measured daily. The dose of ladostigil was adjusted accordingly. Bleomycin alone, (10 mice) and saline controls (6 mice) received regular drinking fluid.

[3] = Mortality in bleomycin-induced lung fibrosis; format: in vivo, C57BL/6JOlaHsd mice; conditions: bleomycin alone
Description: The animal model of bleomycin-induced lung fibrosis is widely used to characterize the potential inhibitory effect of newly developed drugs (Distler et al. 2019). Experiments were performed in C57BL/6JOlaHsd male and female mice aged 12-13 weeks. Male mice weighed 23-27.3 g and female mice, 19.4-21.1 g. They were housed under pathogen-free conditions, up to 6 per cage, in IVC cages under a controlled temperature of 22-24° C., humidity and alternating 12-h light/dark cycles and provided with food and water ad libitum. […] Saline (2-3/sex) and bleomycin controls were anesthetized as described above. Bleomycin solution (0.25 mg/kg in 50 μl) was instilled into the lumen of the trachea as shown in a video by Ehrentraut et al. (2019). […] Mice were weighed daily and sacrificed on day 21. Bronchial fluid was collected as described in Ehrentraut et al. (2019). TNFα and IL-6 in the bronchial fluid lavage was measured by ELISA as described in the preceding section.

skin sclerosis = assay: Dermal and hypodermal thickness in bleomycin-induced skin sclerosis; format: in vivo, C57BL/6 mice; conditions: bleomycin treatment
Description: as §4, §5
Skin was harvested on the gluteal region to avoid dermal fibrosis artifact due to proximity to the site of implant. For histological assessment, the samples were dehydrated in a graded ethanol series, clarified in xylene, and paraffin embedded. They were mounted on slides and paraffin was removed. Sections of 5 μm thickness were cut with a rotary microtome and stained with hematoxylin and eosin (H&E)

TNFα [4] = assay: TNFα in bronchial fluid, bleomycin-induced lung fibrosis (ELISA); format: in vivo, C57BL/6JOlaHsd mice; conditions: AN1284 2.5 mg/kg/day, bleomycin, males; 2.5 mg/kg/day
Description: (§6) The animal model of bleomycin-induced lung fibrosis is widely used to characterize the potential inhibitory effect of newly developed drugs (Distler et al. 2019). Experiments were performed in C57BL/6JOlaHsd male and female mice aged 12-13 weeks. Male mice weighed 23-27.3 g and female mice, 19.4-21.1 g. They were housed under pathogen-free conditions, up to 6 per cage, in IVC cages under a controlled temperature of 22-24° C., humidity and alternating 12-h light/dark cycles and provided with food and water ad libitum. In order to minimize the stress of daily injection, ladostigil (5 mg/Kg/day) was administered by micro-osmotic pumps, implanted subcutaneously under ketamine/xylazine anesthesia, 5 days before administration of bleomycin, and delivered for 3 weeks to mice of each sex. Saline (2-3/sex) and bleomycin controls were anesthetized as described above. Bleomycin solution (0.25 mg/kg in 50 μl) was instilled into the lumen of the trachea as shown in a video by Ehrentraut et al. (2019). […] TNFα and IL-6 in the bronchial fluid lavage was measured by ELISA as described in the preceding section.
(§7) Experiments were performed in C57BL/6JOlaHsd male mice aged 12-13 weeks as described for ladostigil. […] Fibrosis was measured by staining with Sirius red as described for ladostigil. TNFα and IL-6 in the bronchial fluid lavage was measured by ELISA as described for ladostigil.

Nrf2 = Nrf2 in RAW cells activated by LPS; format: cell-based
Description: (§8) RAW 264.7 cells were seeded at a density of 1×10^5 cells per well in 48-well culture plates and grown overnight in DMEM supplemented as indicated above. The wells were washed with PBS (pH 7.4). AN1284, prepared in sterile double distilled water and Budesonide (positive control) were added to give final concentrations ranging from 1× 10^−13-1×10^−7M in medium containing 2% FCS. The cells were incubated for 2 h at 37° C. prior to stimulation with LPS, 2.5 μg/mL from Escherichia coli (Sigma-Aldrich serotype 0111: B4). Supernatants were harvested after 8 hrs for measurement of TNF-α and 24 h for IL-6. TNF-α and IL-6 protein were detected by a commercial ELISA kit (Biolegend, San Diego, CA, USA) according to the manufacturer's instructions. Each concentration of each compound was tested in two-three separate experiments in 6 wells per concentration.
(§9) RAW 264.7 cells were lysed in 0.1 ml of buffer containing 150 mM Tris-Cl (pH 6.8), 10% Glycerol, 0.6% SDS, Bromophenol Blue and 100 mM β-Mercaptoethanol. Lysates were collected and heated at 95° C. for 5 min, then centrifuged for 3 min at 2,240 g. Supernatants were used for gel separation. Protein concentration of the lysates was determined by using Coomassie Brilliant Blue staining. […] Molecular changes were assessed semi-quantitatively after incubation with primary antibodies for relevant proteins.

[5] = system: Aryl hydrocarbon receptor (AhR); conditions: 1 mg/kg/day, two months, NASH mice; cited from earlier work
[6] = Body weight in bleomycin-induced lung fibrosis; format: in vivo, C57BL/6JOlaHsd mice; conditions: AN1284 2.5 mg/kg/day, days 11 and 14 after bleomycin, males
Description: (§10) The animal model of bleomycin-induced lung fibrosis is widely used to characterize the potential inhibitory effect of newly developed drugs (Distler et al. 2019). Experiments were performed in C57BL/6JOlaHsd male and female mice aged 12-13 weeks. Male mice weighed 23-27.3 g and female mice, 19.4-21.1 g. They were housed under pathogen-free conditions, up to 6 per cage, in IVC cages under a controlled temperature of 22-24° C., humidity and alternating 12-h light/dark cycles and provided with food and water ad libitum. In order to minimize the stress of daily injection, ladostigil (5 mg/Kg/day) was administered by micro-osmotic pumps, implanted subcutaneously under ketamine/xylazine anesthesia, 5 days before administration of bleomycin, and delivered for 3 weeks to mice of each sex. Saline (2-3/sex) and bleomycin controls were anesthetized as described above. Bleomycin solution (0.25 mg/kg in 50 μl) was instilled into the lumen of the trachea as shown in a video by Ehrentraut et al. (2019). […] Mice were weighed daily and sacrificed on day 21. Bronchial fluid was collected as described in Ehrentraut et al. (2019). TNFα and IL-6 in the bronchial fluid lavage was measured by ELISA as described in the preceding section.
(§11) Experiments were performed in C57BL/6JOlaHsd male mice aged 12-13 weeks as described for ladostigil. AN1284 (2.5 mg/kg/day) was administered by micro-osmotic pumps, implanted subcutaneously under ketamine/xylazine anesthesia, 5 days before administration of bleomycin and delivered for 3 weeks. Mice were weighed daily, sacrificed on day 21 and bronchial fluid was collected. Fibrosis was measured by staining with Sirius red as described for ladostigil. TNFα and IL-6 in the bronchial fluid lavage was measured by ELISA as described for ladostigil.

[7] = system: cytotoxicity resulting from oxidative stress; conditions: cited from earlier work
Egr1 = Egr1 in RAW cells activated by LPS; format: cell-based
Description: as §8, §9

[8] = system: LPS-activated macrophages; conditions: cited from earlier work
MAPK p38 = conditions: cited from earlier work
[9] = system: bleomycin-induced lung fibrosis; assay: Lung fibrosis score / collagen content in bleomycin-induced lung fibrosis; format: in vivo, C57BL/6JOlaHsd mice
Description: as §10
Specimens taken from the left lung were embedded in paraffin and cut into 5 μm-thick slices. They were put on slides and paraffin was removed. They were rehydrated and stained with a solution of Sirius red (100 mg/100 ml of [COMPOUND LEFT OUT], rinsed in distilled water until clear, dehydrated and mounted in a resinous medium. The red stain (also called “Sirius red” stain) is one of the best understood histochemical techniques. It relies on the birefringent properties of collagen and is much more specific than the other common collagen stains, Pulmonary fibrosis was evaluated on a score of 0-4 on 15-20 different fields taken from each lung section, according to the area and intensity of fibrotic staining in the field, excluding that in blood vessels. Two independent scientists blinded to the treatment performed the analysis. For TGFβ1 staining, slides were deparaffinized and rehydrated. Antigen retrieval was performed in Tris-based buffer, pH 9.0. Endogenous peroxidase activity was quenched by incubation in 3% H2O2. The tissue was permeabilized with Triton X-100 0.1% in PBS. After blocking, sections were incubated with primary antibody: diluted rabbit recombinant monoclonal TGFβ1 antibody (Abcam ab215715) over night, at 4° C. Slices were further incubated with the secondary antibody: ImmPRESS®-HRP Goat Anti-Rabbit IgG Polymer Detection Kit, Peroxidase (Vector labs VE-MP-7451-15) at room temperature. For color development, sections were incubated in peroxidase substrate solution DAB, at room temperature until desired stain intensity developed. They were then counterstained with filtered hematoxylin and cosin, cleared and mounted.
as §11

IL-6 = IL-6 in bronchial fluid, bleomycin-induced lung fibrosis (ELISA); format: in vivo, C57BL/6JOlaHsd mice; conditions: AN1284 2.5 mg/kg/day, bleomycin, males; 2.5 mg/kg/day
Description: as §6, §7

[10] = system: non-alcoholic steatohepatitis (NASH); conditions: 1 mg/kg/day, two months, micro-osmotic pumps; cited from earlier work
Activator protein-1 = conditions: cited from earlier work
NLRP3 = NLRP3 in RAW cells activated by LPS; format: cell-based
Description: as §8, §9

## CCCC1O[C@@H]2C[C@H]3[C@@H]4CCC5=CC(=O)C=C[C@]5(C)[C@H]4[C@@H](O)C[C@]3(C)[C@]2(C(=O)CO)O1 (stereo partly drawn) [budesonide, reference compound]
TNFα [1]
  reduction of TNFα release: reduced the 3 cytokines significantly
IL6; added 2 hrs before BzATP and LPS, 0.1% BSA, p<0.01
  reduction of IL6 release: reduced the 3 cytokines significantly
IL6; p<0.001
  reduction of IL6 compared with reduction of TNF: greater than those of TNF
IL1β; all concentrations tested, added 2 hrs before BzATP and LPS, 0.1% BSA, p<0.01
  reduction of IL1β release: reduced the 3 cytokines significantly
IL1β; ladostigil 1×10^−9 M, budesonide 1×10^−11 M
  reduction of IL1β compared with reduction of TNFα: greater than that of TNFα

## bleomycin [reference compound]
[2]
  weight gain compared with saline: smaller increase in weight
[3]; females, days 7 to 17 (6/38)
  mortality: 16%
[3]; males, days 16-19 (5/16)
  mortality: 31%
Skin sclerosis
  hypodermis thickness change caused: thinning of the hypodermis
  skin (dermal) thickness change caused: thickening

## CC(C)NCCCN1CCc2ccccc21.Cl.Cl [AN1284, 3-(indolin-1-yl)-N-isopropylpropan-1-amine 2HCl]
TNFα [4]
  TNFα in bronchial fluid: does not affect levels of pro-inflammatory cytokines; also recorded: did not reduce
Nrf2; LPS + AN1284 0.1 nM, LPS + vehicle 2.3
  Nrf2: 1.6
Nrf2; LPS-activated RAW cells
  expression of Nrf2: decreased the expression of Nrf2
[5]
  activation of AhR: activation of the Aryl hydrocarbon receptor (AhR)
[6]
  body weight loss: reduced body weight loss
[7]
  cytotoxicity resulting from oxidative stress: inhibited cytotoxicity
Egr1; LPS + AN1284 0.1 nM, LPS + vehicle 2.7
  Egr1: 1.3
Egr1; LPS-activated macrophages
  EGR1: reduced ERG1 in macrophages
[8]
  release of pro-inflammatory cytokines: reduced the release of pro-inflammatory cytokines
MAPK p38
  phosphorylation of MAPK p38: inhibiting phosphorylation of MAPK p38
[9]; AN1284 2.5 mg/kg/day by micro-osmotic pumps, males
  collagen levels / fibrosis score: reduced fibrosis score
[9]; bleomycin-induced lung fibrosis murine model
  fibrosis (overall conclusion): shown to reduce fibrosis
IL-6
  IL-6 in bronchial fluid: does not affect levels of pro-inflammatory cytokines; also recorded: did not reduce
[10]
  steatosis, lipogenesis, and fibrosis: attenuated steatosis, lipogenesis, and fibrosis
Activator protein-1
  nuclear translocation of Activator protein-1: inhibiting phosphorylation of MAPK p38 and nuclear translocation of Activator protein-1
NLRP3; LPS + AN1284 0.1 nM, LPS + vehicle 1.6
  NLRP3: 1.1
NLRP3; LPS-activated RAW cells
  expression of NLRP3: effectively reduce expression of NLRP3
